Reference: publication PMC8703450, “New Heterocyclic Combretastatin A-4 Analogs: Synthesis and Biological Activity of Styryl-2(3H)-benzothiazolones” (Pharmaceuticals, 2021)

Tested on: EA.hy926 cells
Assay: Cell cycle analysis (propidium iodide, flow cytometry)
Format: cell-based, human
Settings: 300 nM 26Z or 10 nM CA-4
Method: A total of 5 × 10^5 cells was treated with 26Z and CA-4 for time-response assays. Cells were collected by scraping, pelleted, washed with cold PBS (1×), and fixed overnight at 4 °C with 1 mL of ice-cold methanol–acetone (1:1), added dropwise to the pellet while vortexing. Pellets were resuspended and washed in 500 μL of PBS (1×), then permeabilized with a Triton X-100 (0.05–0.1%)/DNA extraction buffer (0.2 M Na2HPO4, 0.04 M citric acid, pH 7.8) in a 1:1 ratio for 15 min. After that, pelleted cells were treated with RNAse A (20 μg/mL) and labeled with 10 μg/mL of propidium iodide (Sigma-Aldrich) by incubation at 37 °C for at least 30 min, protected from light. DNA content was measured using a FACS Calibur flow cytometer ([…], NJ, USA), and cell cycle analysis was performed with FlowJo software (version 8.7). At least 10,000 events were recorded for each sample measured in duplicate.

COc1cc(/C=C\c2ccc3c(c2)sc(=O)n3C)cc(OC)c1OC [Compound 26Z, (Z)-3-methyl-6-(3,4,5-trimethoxystyryl)-2(3H)-benzothiazolone]
cells in G2/M (EA.hy926, 4 h): ~ 35% | cells in G2/M (EA.hy926, 24 h): ~ 78%
